The values that follow come from US20240246964A1 (Arbutus Biopharma Corporation, priority 2021, published 2024).

Where only a bound is given, the exact number is not on record here.

The target in experiment [1] is human PD-L1 (Homo sapiens (Human), UniProt Q9NZQ7). As to the kind of experiment: T cell activation luciferase reporter cell culture system (T Cell Activation Assay). The class given is cell-based. The conditions noted are these: luciferase reporter assay; PD-L1 aAPC/CHO-K1 cells with PD-1 effector Jurkat T cells. (A reporter such as luciferase makes a cellular process visible.)
human PD-L1, sequence (Q9NZQ7 19-290): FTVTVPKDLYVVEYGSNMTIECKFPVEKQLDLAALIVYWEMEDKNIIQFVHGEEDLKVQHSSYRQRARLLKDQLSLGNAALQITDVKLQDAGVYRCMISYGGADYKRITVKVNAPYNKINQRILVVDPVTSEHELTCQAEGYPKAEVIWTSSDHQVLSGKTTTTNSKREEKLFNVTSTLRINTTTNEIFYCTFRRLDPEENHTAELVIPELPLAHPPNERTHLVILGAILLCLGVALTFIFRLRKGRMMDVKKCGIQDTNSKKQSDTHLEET

The target of experiment [2] is PD-L1 His protein / PD-1 Fc protein (Homo sapiens (Human), UniProt Q9NZQ7). Nature of the experiment: HTRF Assay (PD-1/PD-L1 interaction). The conditions noted are these: PD-L1 His 6 nM, PD-1 Fc 6 nM. The class given is binding. Background: In TR-FRET formats the signal depends on donor and acceptor labels being close together.
PD-L1 His protein / PD-1 Fc protein, sequence (Q9NZQ7 19-238): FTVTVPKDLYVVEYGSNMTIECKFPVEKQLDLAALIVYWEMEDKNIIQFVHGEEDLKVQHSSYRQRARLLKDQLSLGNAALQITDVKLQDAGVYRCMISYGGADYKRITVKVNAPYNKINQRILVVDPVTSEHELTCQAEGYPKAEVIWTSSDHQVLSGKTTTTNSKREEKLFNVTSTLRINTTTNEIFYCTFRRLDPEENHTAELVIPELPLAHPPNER

Take `COc1cc(-c2nccc(-c3cccc(NC(=O)c4ccc(CNC[C@H](C)O)cn4)c3C)c2Cl)ccc1CNC[C@H](C)O` [Example 650, N-(3-(3-Chloro-2-(4-((((S)-2-hydroxypropyl)amino)methyl)-3-methoxyphenyl)pyridin-4-yl)-2-methylphenyl)-5-((((S)-2-hydroxypropyl)amino)methyl)picolinamide]: the 50% effective concentration (EC50) (commonly the midpoint of the concentration-response curve) in experiment [1] was 144 nM. The IC50 (commonly the concentration that inhibits the measured activity by half) in experiment [2] was found to be 0.1 nM.
In the case of `COc1cc(-c2nccc(-c3cccc(-c4ccc(CNC5CC6(C5)CN(C(C)=O)C6)c(OC)n4)c3C(F)(F)F)c2Cl)ccc1CNC1CC2(C1)CN(C(C)=O)C2` (stereo not drawn) [Example 651, 1-(6-(((6-(3-(2-(4-(((2-Acetyl-2-azaspiro[3.3]heptan-6-yl)amino)methyl)-3-methoxyphenyl)-3-chloropyridin-4-yl)-2-(trifluoromethyl)phenyl)-2-methoxypyridin-3-yl)methyl)amino)-2-azaspiro[3.3]heptan-2-yl)ethan-1-one], the EC50 in experiment [1] is at least 10000 nM. In experiment [2], this compound showed an IC50 of 4.06 nM.
In turn, `COc1cc(-c2nccc(-c3cccc(-c4ccc(CNC5CCOCC5)c(OC)n4)c3C#N)c2Cl)ccc1CNC1CCOCC1` [Example 652, 2-(3-Chloro-2-(3-methoxy-4-(((tetrahydro-2H-pyran-4-yl)amino)methyl)phenyl)pyridin-4-yl)-6-(6-methoxy-5-(((tetrahydro-2H-pyran-4-yl)amino)methyl)pyridin-2-yl)benzonitrile] displayed an EC50 in experiment [1] of 227 nM. In experiment [2], this compound came in with an IC50 of 0.07 nM.
As for `COc1cc(-c2nccc(-c3cccc(-c4ccc(CN5CCN(C(C)=O)CC5)c(OC)n4)c3Cl)c2Cl)ccc1CN1CCN(C(C)=O)CC1` [Example 655, 1-(4-((6-(3-(2-(4-((4-Acetylpiperazin-1-yl)methyl)-3-methoxyphenyl)-3-chloropyridin-4-yl)-2-chlorophenyl)-2-methoxypyridin-3-yl)methyl)piperazin-1-yl)ethan-1-one], the EC50 in experiment [1] is at least 10000 nM. The compound further showed an IC50 in experiment [2] of 9.58 nM.
Consider `COc1cc(-c2nccc(-c3cccc(NC(=O)c4cn(C)c(=O)n(C)c4=O)c3Cl)c2Cl)ccc1CNC1CCN(C(C)=O)CC1` [Example 656, N-(3-(2-(4-(((1-Acetylpiperidin-4-yl)amino)methyl)-3-methoxyphenyl)-3-chloropyridin-4-yl)-2-chlorophenyl)-1,3-dimethyl-2,4-dioxo-1,2,3,4-tetrahydropyrimidine-5-carboxamide], for which, in experiment [1], the EC50 amounted to 589 nM. The same compound had a half-inhibitory concentration (IC50) in experiment [2] of 0.16 nM.
Compound `COc1cc(-c2nccc(-c3cccc(NC(=O)c4cn(C)c(=O)n(C)c4=O)c3Cl)c2Cl)ccc1CNC[C@@H]1CCC(=O)N1` [Example 657, (S)—N-(2-Chloro-3-(3-chloro-2-(3-methoxy-4-((((5-oxopyrrolidin-2-yl)methyl)amino)methyl)phenyl)pyridin-4-yl)phenyl)-1,3-dimethyl-2,4-dioxo-1,2,3,4-tetrahydropyrimidine-5-carboxamide] came in with a concentration for a half-maximal effect (EC50) in experiment [1] of 33.3 nM. Besides, in experiment [2], inhibition was half-maximal at 0.14 nM (IC50).
The corresponding values for `COc1cc(-c2nccc(-c3cccc(NC(=O)c4cn(C)c(=O)n(C)c4=O)c3Cl)c2Cl)ccc1CN1CC2(CNC(=O)C2)C1` [Example 658, N-(2-Chloro-3-(3-chloro-2-(3-methoxy-4-((7-oxo-2,6-diazaspiro[3.4]octan-2-yl)methyl)phenyl)pyridin-4-yl)phenyl)-1,3-dimethyl-2,4-dioxo-1,2,3,4-tetrahydropyrimidine-5-carboxamide] are 492 nM and 0.25 nM.
The corresponding values for `COc1nc(-c2cccc(-c3ccnc(-c4ccc(CN5CC6(C5)CN(C(C)=O)C6)c(OC(F)F)c4)c3Cl)c2Cl)ccc1CN1CC2(CNC(=O)C2)C1` [Example 662, 2-((6-(3-(2-(4-((6-Acetyl-2,6-diazaspiro[3.3]heptan-2-yl)methyl)-3-(difluoromethoxy)phenyl)-3-chloropyridin-4-yl)-2-chlorophenyl)-2-methoxypyridin-3-yl)methyl)-2,6-diazaspiro[3.4]octan-7-one] are 18.5 nM and 0.74 nM.
Turning to `COc1nc(-c2cccc(-c3ccnc(-c4ccc(CNC5CCN(C(C)=O)CC5)c(OC(F)F)c4)c3Cl)c2Cl)ccc1CN1CC2(CNC(=O)C2)C1` [Example 665, 2-((6-(3-(2-(4-(((1-Acetylpiperidin-4-yl)amino)methyl)-3-(difluoromethoxy)phenyl)-3-chloropyridin-4-yl)-2-chlorophenyl)-2-methoxypyridin-3-yl)methyl)-2,6-diazaspiro[3.4]octan-7-one], a half-maximal effect in experiment [1] (EC50) was put at 46.3 nM. In addition, the midpoint of inhibition in experiment [2], the IC50, lay at 0.6 nM.
Turning to `COc1cc(-c2nccc(-c3nccc(-c4ccc(CN5CC6(CNC(=O)C6)C5)c(OC)n4)c3Cl)c2Cl)ccc1CN1CC2(CNC(=O)C2)C1` [Example 669, 2-(4-(3′,3″-Dichloro-6-methoxy-5-((7-oxo-2,6-diazaspiro[3.4]octan-2-yl)methyl)-[2,4′:2′,4″-terpyridin]-2″-yl)-2-methoxybenzyl)-2,6-diazaspiro[3.4]octan-7-one], the half-maximal effective concentration (EC50) in experiment [1] is 296 nM. In experiment [2], this compound gave an IC50 of 0.34 nM.
Compound `COc1cc(-c2nccc(-c3cccc(NC(=O)c4ccc(CNC[C@@H]5CCC(=O)N5)cn4)c3Cl)c2Cl)ccc1CNC[C@@H]1CCC(=O)N1` [Example 675, N-(2-Chloro-3-(3-chloro-2-(3-methoxy-4-(((((S)-5-oxopyrrolidin-2-yl)methyl)amino)methyl)phenyl)pyridin-4-yl)phenyl)-5-(((((S)-5-oxopyrrolidin-2-yl)methyl)amino)methyl)picolinamide] displayed an EC50 in experiment [1] of 26.9 nM. In experiment [2], the IC50 is 0.26 nM.
In experiment [1], `COc1cc(-c2nccc(-c3cccc(NC(=O)c4ccc(CNCCO)cn4)c3Cl)c2Cl)ccc1CNCCO` [Example 676, N-(2-Chloro-3-(3-chloro-2-(4-(((2-hydroxyethyl)amino)methyl)-3-methoxyphenyl)pyridin-4-yl)phenyl)-5-(((2-hydroxyethyl)amino)methyl)picolinamide] gave a concentration giving a half-maximal response (EC50) of 37.3 nM. The compound also registered an IC50 in experiment [2] of 0.1 nM.
In turn, `COc1cc(-c2nccc(-c3cccc(NC(=O)c4ccc(CN5CC6(C5)CN(C(C)=O)C6)cn4)c3Cl)c2Cl)ccc1CN1CC2(C1)CN(C(C)=O)C2` [Example 677, 5-((6-Acetyl-2,6-diazaspiro[3.3]heptan-2-yl)methyl)-N-(3-(2-(4-((6-acetyl-2,6-diazaspiro[3.3]heptan-2-yl)methyl)-3-methoxyphenyl)-3-chloropyridin-4-yl)-2-chlorophenyl)picolinamide] displayed an EC50 in experiment [1] of 1210 nM. The same compound gave a half-inhibitory concentration (IC50) in experiment [2] of 0.04 nM.
Take `COc1cc(-c2nccc(-c3cccc(NC(=O)c4ccc(CNC[C@H](C)O)cn4)c3Cl)c2Cl)ccc1CNC[C@H](C)O` [Example 678, N-(2-Chloro-3-(3-chloro-2-(4-((((S)-2-hydroxypropyl)amino)methyl)-3-methoxyphenyl)pyridin-4-yl)phenyl)-5-((((S)-2-hydroxypropyl)amino)methyl)picolinamide]: the EC50 in experiment [1] stood at 37 nM. Besides, the IC50 in experiment [2] was 0.02 nM.
The corresponding values for `COCCC(=O)N1CC2(CN(Cc3ccc(-c4nccc(-c5cccc(-c6ccc(CN7CC8(C7)CN(C(=O)CCOC)C8)c(OC)n6)c5Cl)c4Cl)cc3OC)C2)C1` [Example 679, 1-(6-((6-(2-Chloro-3-(3-chloro-2-(3-methoxy-4-((6-(3-methoxypropanoyl)-2,6-diazaspiro[3.3]heptan-2-yl)methyl)phenyl)pyridin-4-yl)phenyl)-2-methoxypyridin-3-yl)methyl)-2,6-diazaspiro[3.3]heptan-2-yl)-3-methoxypropan-1-one] are 30.5 nM and 0.16 nM.
